Read-outs that look alike come from different tables or passages of the source.
Biological target: T1, mAChR M4 (Homo sapiens, UniProt P08173)
T1 construct: expressed in transfected cells; host or cells: CHO-K1 cells stably transfected with M4 cDNA and chimeric G-protein Gqi5
T1 sequence (P08173 1-479): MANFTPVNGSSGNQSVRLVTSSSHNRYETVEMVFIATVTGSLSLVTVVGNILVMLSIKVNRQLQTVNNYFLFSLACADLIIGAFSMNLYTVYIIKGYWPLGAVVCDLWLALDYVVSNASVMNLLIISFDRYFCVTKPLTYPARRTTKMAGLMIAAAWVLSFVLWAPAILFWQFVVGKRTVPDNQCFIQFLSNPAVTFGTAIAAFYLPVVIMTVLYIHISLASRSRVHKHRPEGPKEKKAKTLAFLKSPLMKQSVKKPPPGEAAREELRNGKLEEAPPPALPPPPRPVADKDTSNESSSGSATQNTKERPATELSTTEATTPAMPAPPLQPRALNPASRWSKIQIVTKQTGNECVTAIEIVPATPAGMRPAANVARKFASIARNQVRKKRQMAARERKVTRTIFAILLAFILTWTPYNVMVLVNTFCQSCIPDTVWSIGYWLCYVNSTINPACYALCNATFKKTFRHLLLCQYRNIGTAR
Assay: mAChR M4 cell-based functional assay (calcium mobilization, potentiation of EC20 acetylcholine response)
Details: for Emax at 30 µM: % ACh maximum at 30 μM

[1] = mAChR M4 cell-based functional assay, >10,000 estimated for low potency compounds without plateau, read-out: EC50

SMILES | Emax at 30 µM [%] | EC50 [1] [nM] | EC50 (EC50 (nM)) [nM]
Cc1nnc2sc(C(=O)N3CC4CN(C(=O)C5CCC5)CC4C3)c(N)c2c1C (stereo not drawn) [Example B385] | 55 | 2600 | –
Cc1nnc2sc(C(=O)N3CCC(NS(=O)(=O)c4cncn4C)C3)c(N)c2c1C (stereo not drawn) [Example B202] | 69 | 3800 | –
Cc1nnc2sc(C(=O)N3CC(Sc4ccc(F)cc4F)C3)c(N)c2c1C [Example B419] | 56 | 220 | –
Cc1nnc2sc(C(=O)NCc3cccc(-c4ccccc4)c3)c(N)c2c1C [Example B469] | 64 | 430 | –
Cc1ccc(S(=O)(=O)NC2CCN(C(=O)c3sc4nnc(C)c(C)c4c3N)C2)s1 (stereo not drawn) [Example B257] | 62 | 1100 | –
Cc1nnc2sc(C(=O)N3CC(F)(c4cccc(N=[N+]=[N-])c4)C3)c(N)c2c1C [Example B401] | 54 | 3100 | –
Cc1nnc2sc(C(=O)NC3CN(C(=O)c4c(F)cccc4F)C3)c(N)c2c1C [Example B408] | 65 | 270 | –
Cc1nnc2sc(C(=O)N3CC(NCc4ccc(F)cc4)C3)c(N)c2c1C [Example B59] | 56 | 4100 | –
Cc1nnc2sc(C(=O)N3CC(S(C)(=O)=O)C3)c(N)c2c1C [Example B406] | 54 | 1700 | –
Cc1nnc2sc(C(=O)N3CC(F)(c4ccc(Cl)cc4)C3)c(N)c2c1C [Example B295] | 54 | > 10000 | –
Cc1nnc2sc(C(=O)N3CCC4(CN(C(=O)OC(C)(C)C)C4)C3)c(N)c2c1C [Example B194] | 30 | 4700 | –
Cc1nnc2sc(C(=O)N3CC(F)(C4CCCCC4)C3)c(N)c2c1C [Example B296] | 67 | 280 | –
Cc1nnc2sc(C(=O)N3CC(NC(=O)C4CCCCC4)C3)c(N)c2c1C [Example B185] | 54 | 1800 | –
Cc1nnc2sc(C(=O)NCc3ccc(S(=O)(=O)C(F)F)cc3Cl)c(N)c2c1C [Example B507] | 66 | 510 | –
Cc1nnc2sc(C(=O)N3CC4CN(c5ccccn5)CC4C3)c(N)c2c1C (stereo not drawn) [Example B287] | 58 | 250 | –
COc1cccc(C2(F)CN(C(=O)c3sc4nnc(C)c(C)c4c3N)C2)c1 [Example B300] | 52 | 330 | –
Cc1nnc2sc(C(=O)NC3CCN(C(=O)CCCc4ccccc4)C3)c(N)c2c1C (stereo not drawn) [Example B258] | 64 | 520 | –
Cc1nnc2sc(C(=O)N3CCC(C4CCCCC4)C3)c(N)c2c1C (stereo not drawn) [Example B379] | 45 | 3900 | –
CCS(=O)(=O)N1CC(NC(=O)c2sc3nnc(C)c(C)c3c2N)C1 [Example B142] | 77 | 290 | –

SMILES | Emax at 30 µM [%] | EC50 [1] [nM] | EC50 (EC50 (nM)) [nM]
Cc1nnc2sc(C(=O)N3C[C@@H]4C[C@@H]3CN4S(C)(=O)=O)c(N)c2c1C [Example B267] | 51 | 5100 | –
COc1ccc(C2CCN(C(=O)c3sc4nnc(C)c(C)c4c3N)C2)cc1 (stereo not drawn) [Example B164] | 39 | 280 | –
Cc1nnc2sc(C(=O)NC3CN(C(=O)c4ccccn4)C3)c(N)c2c1C [Example B126] | 92 | 290 | –
Nc1c(C(=O)NCc2ccc(S(=O)(=O)C(F)(F)F)cc2)sc2nnc3c(c12)CCCC3 [Example B189] | 42 | 420 | –
Cc1nnc2sc(C(=O)N3CC(NCCC(C)C)C3)c(N)c2c1C [Example B63] | 41 | > 10000 | –
Cc1nnc2sc(C(=O)NCc3ccc(C(F)F)nc3)c(N)c2c1C [Example B420] | 71 | 270 | –
Cc1nnc2sc(C(=O)N3CCC(NC(=O)c4cccc(F)c4)C3)c(N)c2c1C (stereo not drawn) [Example B216] | 62 | > 10000 | –
Cc1ccc(C(=O)NC2CCN(C(=O)c3sc4nnc(C)c(C)c4c3N)C2)cc1 (stereo not drawn) [Example B225] | 62 | 1400 | –
Cc1nnc2sc(C(=O)NCc3cccc(S(C)(=O)=O)c3)c(N)c2c1C [Example B44] | 75 | – | 420
Cc1nnc2sc(C(=O)NCCN(C)C(=O)c3ccccc3)c(N)c2c1C [Example B369] | 25 | > 10000 | –
Cc1nnc2sc(C(=O)NCc3ccc(S(=O)(=O)CCO[Si](c4ccccc4)(c4ccccc4)C(C)(C)C)cc3)c(N)c2c1C [Example B335] | 74 | 890 | –
Cc1nnc2sc(C(=O)NC3(c4ccc(F)cc4)CC3)c(N)c2c1C [Example B390] | 46 | > 10000 | –
Cc1nnc2sc(C(=O)NCc3ccc([S+]([O-])C(F)(F)F)cc3)c(N)c2c1C (stereo not drawn) [Example B476] | 66 | 1600 | –
Cc1nnc2sc(C(=O)N3CC(F)(c4ccc(S(=O)(=O)CF)cc4)C3)c(N)c2c1C [Example B393] | 44 | 400 | –
Cc1nnc2sc(C(=O)N3CC(NC(=O)c4ccccc4)C3)c(N)c2c1C [Example B169] | 68 | 1500 | –
Cc1cc(NC(=O)c2sc3nnc(C)c(C)c3c2N)ccn1 [Example B88] | 43 | 400 | –
Cc1nnc2sc(C(=O)NCCNC(=O)c3ccccc3)c(N)c2c1C [Example B347] | 59 | 1500 | –
Cc1nnc2sc(C(=O)NCc3ccn(C)c(=O)c3)c(N)c2c1C [Example B466] | 60 | 1200 | –

Second part, led by results:

Emax at 30 µM [%] | EC50 [1] [nM] | SMILES | EC50 (EC50 (nM)) [nM]
69 | 41 | Cc1nnc2sc(C(=O)NC3CCN(c4ccc(Cl)cc4)C3)c(N)c2c1C (stereo not drawn) [Example B274] | –
71 | 23 | Cc1nnc2sc(C(=O)NCc3ccc([S+]([O-])C(F)F)cc3)c(N)c2c1C (stereo not drawn) [Example B478] | –
71 | 200 | Cc1cncc(-c2ccc(CNC(=O)c3sc4nnc(C)c(C)c4c3N)cc2)c1 [Example B499] | –
79 | 7.5 | COc1ccc([C@H]2C[C@@H]2NC(=O)c2sc3nnc(C)c(C)c3c2N)cc1 (single isomer, unassigned) [Example B31] | –
84 | 18 | COc1c(F)cc(CNC(=O)c2sc3nnc(C)c(C)c3c2N)cc1F [Example B313] | –
66 | 55 | Cc1nnc2sc(C(=O)NCc3ccc(C4(S(C)(=O)=O)CC4)cc3)c(N)c2c1C [Example B105] | –
63 | 110 | Cc1cc(-c2ccc(CNC(=O)c3sc4nnc(C)c(C)c4c3N)cc2)cnc1F [Example B484] | –
75 | 190 | Cc1nnc2sc(C(=O)NCc3ccc4[nH]c(C)c(C)c4c3)c(N)c2c1C [Example B250] | –
86 | 190 | Cc1nnc2sc(C(=O)NC3CN(C(=O)CCCc4ccccc4)C3)c(N)c2c1C [Example B120] | –
67 | 9 | Cc1ccc(OC(=O)N2CC(NC(=O)c3sc4nnc(C)c(C)c4c3N)C2)cc1 [Example B342] | –
63 | 25 | CCOc1ccc(CNC(=O)c2sc3nnc(C)c(C)c3c2N)cc1 [Example B198] | –
64 | 31 | Cc1nnc2sc(C(=O)NC3CCN(C(=O)OCc4ccccc4)C3)c(N)c2c1C (stereo not drawn) [Example B206] | –
68 | 210 | Cc1nnc2sc(C(=O)NC3CN(S(C)(=O)=O)C3)c(N)c2c1C [Example B80] | –
67 | 120 | Cc1nnc2sc(C(=O)NCc3ccc(N4CCOCC4)cc3)c(N)c2c1C [Example B327] | –
66 | 170 | COc1ccc(C#CCNC(=O)c2sc3nnc(C)c(C)c3c2N)cc1 [Example B373] | –
74 | 76 | Cc1nnc2sc(C(=O)NC3CCN(c4ccccc4F)C3)c(N)c2c1C (stereo not drawn) [Example B339] | –
61 | 44 | Cc1nnc2sc(C(=O)NCc3ccc(S(=O)(=O)C(C)(C)C(F)(F)F)cc3)c(N)c2c1C [Example B108] | –
58 | 47 | Cc1nnc2sc(C(=O)NCc3c(F)ccc(F)c3Cl)c(N)c2c1C [Example B85] | –
65 | 57 | Cc1cccc(S(=O)(=O)N2CC(NC(=O)c3sc4nnc(C)c(C)c4c3N)C2)c1 [Example B138] | –
68 | 180 | Cc1nnc2sc(C(=O)NC3CN(S(=O)(=O)c4ccoc4)C3)c(N)c2c1C [Example B100] | –
71 | 150 | COc1ccc(CNC(=O)c2sc3nnc(C)c(C)c3c2N)cn1 [Example B288] | –
71 | 47 | CCc1ccc(CNC(=O)c2sc3nnc(C)c(C)c3c2N)cc1 [Example B395] | –
69 | 61 | Cc1nnc2sc(C(=O)NCc3ccc4c(ccn4C)c3)c(N)c2c1C [Example B196] | –
67 | 23 | Cc1nnc2sc(C(=O)NC3CN(c4ncc(Br)cn4)C3)c(N)c2c1C [Example B429] | –
69 | 94 | Cc1nc(C)c(S(=O)(=O)N2CC(NC(=O)c3sc4nnc(C)c(C)c4c3N)C2)s1 [Example B103] | –
78 | 31 | Cc1nnc2sc(C(=O)NC3CN(C(=O)c4cccs4)C3)c(N)c2c1C [Example B128] | –
